# Test results: patent US7074789B2, “Kinase inhibitors” (Amgen Inc., priority 1999, dated 2006)
# Key:
# Format in all cases: biochemical
# Flt-1 = target: T1, Flt-1 (Homo sapiens, UniProt P17948); test: Kinase inhibition assay (33P transfer), Flt-1
# T1 construct: Kinases are expressed as either kinase domains or full length constructs; made in house
# Outline: (§1)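 IC50: inhibitor concentration lowering 33P incorporation into immobilised substrate by 50%. Label transferred from ATP to poly(Glu,Tyr) 4:1 or poly(Arg,Ser) 3:1 is measured after a 0.5% phosphoric acid wash by liquid scintillation.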
# IGFR-1 = target: T2, IGFR-1 (Homo sapiens, UniProt P08069); test: Kinase inhibition assay (33P transfer), IGFR-1; conditions: Table 2, kinase inhibition class
# T2 construct: Kinases are expressed as either kinase domains or full length constructs; made in house
# ErbB4 = target: T3, ErbB4 (Homo sapiens, UniProt Q15303); test: Kinase inhibition assay (33P transfer), ErbB4; conditions: read-out: ErbB4-1
# T3 construct: Kinases are expressed as either kinase domains or full length constructs; made in house
# T3 sequence (Q15303 26-1308, species assumed): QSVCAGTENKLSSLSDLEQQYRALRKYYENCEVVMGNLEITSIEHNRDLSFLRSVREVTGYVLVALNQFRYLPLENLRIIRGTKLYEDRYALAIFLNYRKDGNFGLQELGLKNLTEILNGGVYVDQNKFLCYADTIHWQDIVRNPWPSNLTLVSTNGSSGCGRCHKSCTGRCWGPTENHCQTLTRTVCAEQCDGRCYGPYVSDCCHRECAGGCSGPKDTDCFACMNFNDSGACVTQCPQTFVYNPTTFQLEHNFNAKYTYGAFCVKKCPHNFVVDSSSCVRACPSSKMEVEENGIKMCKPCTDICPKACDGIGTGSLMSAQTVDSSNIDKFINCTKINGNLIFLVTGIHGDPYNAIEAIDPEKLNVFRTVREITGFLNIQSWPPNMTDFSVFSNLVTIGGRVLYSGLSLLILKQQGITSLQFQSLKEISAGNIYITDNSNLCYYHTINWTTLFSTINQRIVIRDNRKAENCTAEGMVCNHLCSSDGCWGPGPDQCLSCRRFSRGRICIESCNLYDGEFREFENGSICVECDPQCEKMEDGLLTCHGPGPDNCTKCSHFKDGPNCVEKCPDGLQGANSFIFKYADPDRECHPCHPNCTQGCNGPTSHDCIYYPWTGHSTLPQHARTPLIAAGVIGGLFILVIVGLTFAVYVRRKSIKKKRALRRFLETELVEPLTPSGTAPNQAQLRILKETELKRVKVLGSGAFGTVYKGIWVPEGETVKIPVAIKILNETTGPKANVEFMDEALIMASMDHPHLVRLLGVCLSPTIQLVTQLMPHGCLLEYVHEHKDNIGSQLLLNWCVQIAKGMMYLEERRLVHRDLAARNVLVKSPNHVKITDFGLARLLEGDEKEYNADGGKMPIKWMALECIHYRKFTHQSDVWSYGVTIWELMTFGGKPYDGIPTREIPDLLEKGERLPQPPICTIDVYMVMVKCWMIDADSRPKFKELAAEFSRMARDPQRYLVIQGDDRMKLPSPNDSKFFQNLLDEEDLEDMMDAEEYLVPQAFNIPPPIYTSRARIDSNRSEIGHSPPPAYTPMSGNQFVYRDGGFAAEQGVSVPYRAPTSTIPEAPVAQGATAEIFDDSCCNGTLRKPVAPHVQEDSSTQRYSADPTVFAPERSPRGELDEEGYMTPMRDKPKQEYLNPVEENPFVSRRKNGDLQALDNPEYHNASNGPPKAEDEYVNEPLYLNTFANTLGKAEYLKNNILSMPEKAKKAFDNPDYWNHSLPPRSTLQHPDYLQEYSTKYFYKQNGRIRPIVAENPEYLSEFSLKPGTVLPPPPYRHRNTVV
# c-Met = target: T4, c-Met (Homo sapiens, UniProt P08581); test: Kinase inhibition assay (33P transfer), c-Met; conditions: Table 2, kinase inhibition class; read-out: Met-1
# T4 construct: Kinases are expressed as either kinase domains or full length constructs; made in house
# T4 sequence (P08581 25-1390): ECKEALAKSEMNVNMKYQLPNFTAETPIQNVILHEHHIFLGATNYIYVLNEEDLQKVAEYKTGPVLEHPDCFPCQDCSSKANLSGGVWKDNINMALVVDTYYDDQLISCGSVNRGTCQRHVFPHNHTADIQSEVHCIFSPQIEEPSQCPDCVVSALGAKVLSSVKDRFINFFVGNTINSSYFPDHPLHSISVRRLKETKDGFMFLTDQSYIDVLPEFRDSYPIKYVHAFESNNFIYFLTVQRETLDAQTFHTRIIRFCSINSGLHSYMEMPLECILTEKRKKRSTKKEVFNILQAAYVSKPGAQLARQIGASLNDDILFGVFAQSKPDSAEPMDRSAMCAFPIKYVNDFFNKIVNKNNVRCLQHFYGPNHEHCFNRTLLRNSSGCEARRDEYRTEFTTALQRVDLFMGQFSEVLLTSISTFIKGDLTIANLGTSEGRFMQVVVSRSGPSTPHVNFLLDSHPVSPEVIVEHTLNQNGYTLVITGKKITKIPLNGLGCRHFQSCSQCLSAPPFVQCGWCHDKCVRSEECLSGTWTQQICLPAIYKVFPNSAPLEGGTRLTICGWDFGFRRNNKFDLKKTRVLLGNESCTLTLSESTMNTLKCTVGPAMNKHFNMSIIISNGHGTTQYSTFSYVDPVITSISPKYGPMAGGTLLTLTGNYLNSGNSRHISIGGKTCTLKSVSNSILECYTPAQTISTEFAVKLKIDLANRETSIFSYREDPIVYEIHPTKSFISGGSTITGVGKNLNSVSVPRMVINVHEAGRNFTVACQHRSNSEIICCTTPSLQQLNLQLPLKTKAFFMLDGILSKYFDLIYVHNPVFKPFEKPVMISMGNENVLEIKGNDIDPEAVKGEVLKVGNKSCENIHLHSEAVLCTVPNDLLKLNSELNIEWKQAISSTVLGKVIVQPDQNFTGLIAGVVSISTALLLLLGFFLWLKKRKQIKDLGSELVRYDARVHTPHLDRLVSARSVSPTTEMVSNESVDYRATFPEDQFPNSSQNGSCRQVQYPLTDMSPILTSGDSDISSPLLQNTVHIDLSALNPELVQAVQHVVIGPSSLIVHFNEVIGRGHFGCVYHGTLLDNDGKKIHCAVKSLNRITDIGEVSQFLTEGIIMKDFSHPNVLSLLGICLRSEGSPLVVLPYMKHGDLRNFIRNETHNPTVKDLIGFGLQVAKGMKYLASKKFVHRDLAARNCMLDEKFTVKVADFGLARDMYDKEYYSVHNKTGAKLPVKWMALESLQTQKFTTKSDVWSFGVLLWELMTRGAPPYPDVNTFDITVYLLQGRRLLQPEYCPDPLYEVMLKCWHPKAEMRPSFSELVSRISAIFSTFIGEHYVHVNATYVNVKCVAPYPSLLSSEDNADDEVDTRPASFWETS
# Outline: as §1
# EPHB4 = target: T5, EPHB4 (Homo sapiens, UniProt P54760); test: Kinase inhibition assay (33P transfer), EPHB4; conditions: read-out: EPHB4-1
# T5 construct: Kinases are expressed as either kinase domains or full length constructs; made in house
# T5 sequence (P54760 16-987): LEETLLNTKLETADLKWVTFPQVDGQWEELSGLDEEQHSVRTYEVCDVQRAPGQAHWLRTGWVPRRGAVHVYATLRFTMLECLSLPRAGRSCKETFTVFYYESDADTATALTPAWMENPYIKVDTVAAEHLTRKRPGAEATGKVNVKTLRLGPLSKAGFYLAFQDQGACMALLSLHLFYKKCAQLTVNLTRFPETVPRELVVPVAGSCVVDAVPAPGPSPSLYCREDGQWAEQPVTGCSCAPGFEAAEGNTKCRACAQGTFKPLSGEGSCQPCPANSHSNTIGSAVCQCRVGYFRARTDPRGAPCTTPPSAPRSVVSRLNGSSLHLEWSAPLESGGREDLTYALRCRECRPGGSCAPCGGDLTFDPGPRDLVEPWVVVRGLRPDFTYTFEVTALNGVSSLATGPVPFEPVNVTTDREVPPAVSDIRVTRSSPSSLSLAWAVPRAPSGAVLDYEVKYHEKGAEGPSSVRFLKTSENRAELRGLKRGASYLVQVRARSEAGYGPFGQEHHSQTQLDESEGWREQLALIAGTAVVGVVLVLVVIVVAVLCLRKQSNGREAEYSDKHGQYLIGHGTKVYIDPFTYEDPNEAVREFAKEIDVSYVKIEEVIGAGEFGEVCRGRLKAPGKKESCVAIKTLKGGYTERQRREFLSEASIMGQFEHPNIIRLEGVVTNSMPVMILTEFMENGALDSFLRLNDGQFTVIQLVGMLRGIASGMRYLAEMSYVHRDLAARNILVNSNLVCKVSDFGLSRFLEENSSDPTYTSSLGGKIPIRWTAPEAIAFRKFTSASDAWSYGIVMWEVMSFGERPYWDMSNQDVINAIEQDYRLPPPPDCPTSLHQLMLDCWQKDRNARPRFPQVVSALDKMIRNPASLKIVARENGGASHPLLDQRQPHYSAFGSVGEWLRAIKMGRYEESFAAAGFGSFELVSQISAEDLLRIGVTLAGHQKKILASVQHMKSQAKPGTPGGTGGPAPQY
# PDGFRB = target: T6, PDGFRB (Homo sapiens, UniProt P09619); test: Kinase inhibition assay (33P transfer), PDGFRB; conditions: read-out: PDGFRB-1
# T6 construct: Kinases are expressed as either kinase domains or full length constructs; made in house
# Tek = target: T7, Tek (Homo sapiens, UniProt Q02763); test: Kinase inhibition assay (33P transfer), Tek; conditions: read-out: Tek-1
# T7 construct: Kinases are expressed as either kinase domains or full length constructs; made in house
# T7 sequence (Q02763 23-1124, species assumed): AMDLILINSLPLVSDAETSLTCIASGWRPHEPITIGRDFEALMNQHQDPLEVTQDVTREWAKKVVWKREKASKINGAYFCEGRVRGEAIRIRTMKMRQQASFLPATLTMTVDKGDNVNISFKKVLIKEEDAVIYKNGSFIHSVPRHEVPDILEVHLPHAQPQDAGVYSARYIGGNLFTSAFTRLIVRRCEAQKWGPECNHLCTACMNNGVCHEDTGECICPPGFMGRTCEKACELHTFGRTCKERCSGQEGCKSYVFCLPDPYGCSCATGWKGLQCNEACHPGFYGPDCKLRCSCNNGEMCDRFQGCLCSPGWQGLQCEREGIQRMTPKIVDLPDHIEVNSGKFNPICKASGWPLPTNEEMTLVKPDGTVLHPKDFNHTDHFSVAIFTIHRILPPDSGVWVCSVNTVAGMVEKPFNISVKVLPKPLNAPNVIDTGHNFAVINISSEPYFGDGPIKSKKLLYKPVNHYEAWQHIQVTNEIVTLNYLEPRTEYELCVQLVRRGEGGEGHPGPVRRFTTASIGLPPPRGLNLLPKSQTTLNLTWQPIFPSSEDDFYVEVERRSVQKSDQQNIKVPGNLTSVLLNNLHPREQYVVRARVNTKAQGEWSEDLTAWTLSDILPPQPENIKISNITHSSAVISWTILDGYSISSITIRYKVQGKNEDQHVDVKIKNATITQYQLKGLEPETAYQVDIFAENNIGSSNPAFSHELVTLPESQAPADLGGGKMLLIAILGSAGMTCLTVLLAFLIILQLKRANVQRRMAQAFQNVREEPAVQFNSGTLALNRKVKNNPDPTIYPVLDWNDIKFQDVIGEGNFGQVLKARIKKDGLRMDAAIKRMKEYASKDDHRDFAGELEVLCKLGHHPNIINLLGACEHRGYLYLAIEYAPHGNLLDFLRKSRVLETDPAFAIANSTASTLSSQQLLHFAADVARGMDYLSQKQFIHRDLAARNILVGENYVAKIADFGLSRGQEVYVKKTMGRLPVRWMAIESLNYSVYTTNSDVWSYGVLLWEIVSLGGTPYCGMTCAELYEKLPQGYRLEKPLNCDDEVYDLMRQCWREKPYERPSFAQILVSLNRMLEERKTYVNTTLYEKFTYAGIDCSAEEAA
# Outline: as §1
# FGFR1 = target: T8, FGFR1 (Homo sapiens, UniProt P11362); test: Kinase inhibition assay (33P transfer), FGFR1; conditions: read-out: FGFR1-1
# T8 construct: Kinases are expressed as either kinase domains or full length constructs; made in house
# Itk = target: T9, Itk (Homo sapiens, UniProt Q08881); test: Kinase inhibition assay (33P transfer), Itk; conditions: Table 3; read-out: Itk-1
# T9 construct: Kinases are expressed as either kinase domains or full length constructs; made in house
# T9 sequence (Q08881 1-620): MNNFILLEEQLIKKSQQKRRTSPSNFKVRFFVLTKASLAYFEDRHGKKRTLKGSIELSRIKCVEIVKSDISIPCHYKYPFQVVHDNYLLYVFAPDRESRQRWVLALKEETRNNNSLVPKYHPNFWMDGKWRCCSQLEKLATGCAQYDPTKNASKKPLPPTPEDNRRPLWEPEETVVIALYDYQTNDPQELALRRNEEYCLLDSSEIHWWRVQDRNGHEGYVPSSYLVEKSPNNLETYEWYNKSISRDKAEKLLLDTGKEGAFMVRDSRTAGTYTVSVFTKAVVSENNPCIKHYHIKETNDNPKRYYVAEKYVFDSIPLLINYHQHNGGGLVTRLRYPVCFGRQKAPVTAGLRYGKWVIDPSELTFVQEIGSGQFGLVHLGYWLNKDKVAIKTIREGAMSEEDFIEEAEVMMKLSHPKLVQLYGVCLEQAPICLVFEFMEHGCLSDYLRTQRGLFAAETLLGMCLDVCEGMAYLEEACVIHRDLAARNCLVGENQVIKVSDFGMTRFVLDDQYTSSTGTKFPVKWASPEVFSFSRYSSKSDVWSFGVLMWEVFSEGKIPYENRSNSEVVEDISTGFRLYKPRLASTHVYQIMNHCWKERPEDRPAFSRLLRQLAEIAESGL
# Outline: as §1
# T1 sequence (P17948 27-1338, species assumed): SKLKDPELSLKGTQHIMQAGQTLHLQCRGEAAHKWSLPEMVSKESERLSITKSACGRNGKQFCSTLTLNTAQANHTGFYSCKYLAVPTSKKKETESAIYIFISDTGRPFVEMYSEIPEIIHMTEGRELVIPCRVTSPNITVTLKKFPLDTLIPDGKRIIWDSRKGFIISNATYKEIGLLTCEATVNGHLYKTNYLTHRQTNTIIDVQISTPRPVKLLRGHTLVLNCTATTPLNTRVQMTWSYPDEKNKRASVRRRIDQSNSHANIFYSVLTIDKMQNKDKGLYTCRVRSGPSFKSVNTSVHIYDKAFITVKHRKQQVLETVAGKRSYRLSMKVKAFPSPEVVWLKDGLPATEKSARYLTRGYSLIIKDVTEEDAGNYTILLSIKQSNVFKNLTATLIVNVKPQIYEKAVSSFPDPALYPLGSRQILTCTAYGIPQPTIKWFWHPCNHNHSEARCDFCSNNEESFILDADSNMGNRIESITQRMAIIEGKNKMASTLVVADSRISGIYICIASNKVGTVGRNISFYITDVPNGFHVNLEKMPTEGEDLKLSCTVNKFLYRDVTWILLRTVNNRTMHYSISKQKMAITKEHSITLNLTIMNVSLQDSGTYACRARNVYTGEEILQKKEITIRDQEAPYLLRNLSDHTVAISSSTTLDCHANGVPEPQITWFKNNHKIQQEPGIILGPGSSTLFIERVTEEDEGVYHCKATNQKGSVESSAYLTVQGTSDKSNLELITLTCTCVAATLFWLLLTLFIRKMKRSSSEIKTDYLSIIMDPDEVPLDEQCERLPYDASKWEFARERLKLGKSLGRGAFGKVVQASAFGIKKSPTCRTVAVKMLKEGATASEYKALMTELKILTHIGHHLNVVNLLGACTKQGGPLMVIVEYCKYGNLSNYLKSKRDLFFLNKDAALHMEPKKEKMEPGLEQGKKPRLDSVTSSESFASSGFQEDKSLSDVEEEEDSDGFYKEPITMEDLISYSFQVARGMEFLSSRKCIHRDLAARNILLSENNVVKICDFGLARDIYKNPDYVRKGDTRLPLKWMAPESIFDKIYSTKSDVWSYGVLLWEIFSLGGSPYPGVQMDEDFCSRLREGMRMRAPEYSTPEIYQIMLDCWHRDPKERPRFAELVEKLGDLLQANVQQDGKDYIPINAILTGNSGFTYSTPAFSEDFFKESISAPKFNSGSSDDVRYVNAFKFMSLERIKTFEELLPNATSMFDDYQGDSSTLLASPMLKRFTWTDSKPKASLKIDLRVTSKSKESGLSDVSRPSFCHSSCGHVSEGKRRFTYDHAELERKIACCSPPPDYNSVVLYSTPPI
SMILES,IC50 (Flt-1),IC50 (IGFR-1),IC50 (ErbB4),IC50 (c-Met),IC50 (EPHB4),IC50 (PDGFRB),IC50 (Tek),IC50 (FGFR1),IC50 (Itk)
COc1cc(Nc2ncnc(N(c3ccccc3)c3nc4ccccc4[nH]3)n2)cc(OC)c1OC [Compound 335],0.852 to 5.11 µM,> 9.58 µM,> 9.58 µM,> 9.58 µM,0.852 to 5.11 µM,7.45 to 9.58 µM,> 9.58 µM,7.45 to 9.58 µM,> 9.58 µM
COc1ccc(Nc2ncnc(-n3c(N)nc4ccccc43)n2)cc1OC [Compound 285],> 12.4 µM,< 1.1 µM,> 12.4 µM,> 12.4 µM,> 12.4 µM,> 12.4 µM,> 12.4 µM,9.63 to 12.4 µM,> 12.4 µM
Cc1cccc(Nc2ncnc(Nc3ccc4[nH]ncc4c3)n2)c1 [Compound 120],1.26 to 7.56 µM,< 1.26 µM,1.26 to 7.56 µM,7.56 to 11 µM,1.26 to 7.56 µM,< 1.26 µM,7.56 to 11 µM,1.26 to 7.56 µM,7.56 to 11 µM
COC(=O)c1sccc1Nc1ncnc(Nc2cc(OC)c(OC)c(OC)c2)n1 [Compound 315],> 10.8 µM,> 10.8 µM,0.958 to 5.75 µM,8.38 to 10.8 µM,> 10.8 µM,0.958 to 5.75 µM,> 10.8 µM,> 10.8 µM,> 10.8 µM
COc1ccc(Nc2ncnc(Nc3ccc4[nH]ccc4c3)n2)cc1OC [Compound 115],1.1 to 6.62 µM,1.1 to 6.62 µM,> 12.4 µM,> 12.4 µM,9.66 to 12.4 µM,> 12.4 µM,> 12.4 µM,6.62 to 9.66 µM,9.66 to 12.4 µM
CCOc1ccc(Nc2ncnc(Nc3ccc(C)c(O)c3)n2)cc1OCC [Compound 121],< 1.05 µM,> 11.8 µM,1.05 to 6.29 µM,9.18 to 11.8 µM,> 11.8 µM,< 1.05 µM,> 11.8 µM,1.05 to 6.29 µM,9.18 to 11.8 µM
COc1cc(Nc2ncnc(N3c4ccc(F)cc4CCC3C)n2)cc(OC)c1OC (stereo not drawn) [Compound 298],< 0.94 µM,5.64 to 8.23 µM,0.94 to 5.64 µM,< 0.94 µM,0.94 to 5.64 µM,< 0.94 µM,0.94 to 5.64 µM,< 0.94 µM,0.94 to 5.64 µM
c1coc(-c2cc(Nc3ncnc(Nc4ccc(N5CCOCC5)cc4)n3)[nH]n2)c1 [Compound 340],< 0.989 µM,< 0.989 µM,0.989 to 5.93 µM,< 0.989 µM,0.989 to 5.93 µM,8.65 to 11.1 µM,8.65 to 11.1 µM,0.989 to 5.93 µM,> 11.1 µM
COc1ccc2c(ccn2-c2ncnc(Nc3cc(OC)c(OC)c(OC)c3)n2)c1 [Compound 196],0.982 to 5.89 µM,0.982 to 5.89 µM,> 11 µM,> 11 µM,> 11 µM,< 0.982 µM,> 11 µM,5.89 to 8.59 µM,> 11 µM
COc1cc(Nc2ncnc(Nc3ccc(C)c(F)c3)n2)cc(OC)c1OC [Compound 300],> 11.7 µM,< 1.04 µM,1.04 to 6.23 µM,6.23 to 9.08 µM,1.04 to 6.23 µM,< 1.04 µM,9.08 to 11.7 µM,6.23 to 9.08 µM,6.23 to 9.08 µM
COc1ccc(N(C)c2ncnc(Nc3cc(OC)c(OC)c(OC)c3)n2)cc1 [Compound 106],< 1.01 µM,6.04 to 8.81 µM,6.04 to 8.81 µM,1.01 to 6.04 µM,1.01 to 6.04 µM,< 1.01 µM,> 11.3 µM,1.01 to 6.04 µM,> 11.3 µM
COc1cc(Nc2ncnc(-n3ccc4ccc(Cl)cc43)n2)cc(OC)c1OC [Compound 237],8.5 to 10.9 µM,< 0.971 µM,> 10.9 µM,5.83 to 8.5 µM,8.5 to 10.9 µM,> 10.9 µM,> 10.9 µM,5.83 to 8.5 µM,> 10.9 µM
COc1ccc(Nc2ncnc(Nc3cc(OC)c(OC)c(OC)c3)n2)cc1O [Compound 931],< 1 µM,1 to 6.01 µM,1 to 6.01 µM,> 11.3 µM,1 to 6.01 µM,< 1 µM,8.76 to 11.3 µM,1 to 6.01 µM,> 11.3 µM

# The next lines start with the values.
IC50 (Flt-1),IC50 (IGFR-1),IC50 (ErbB4),IC50 (c-Met),IC50 (EPHB4),IC50 (PDGFRB),IC50 (Tek),IC50 (FGFR1),IC50 (Itk),SMILES
1.06 to 6.34 µM,> 11.9 µM,> 11.9 µM,> 11.9 µM,> 11.9 µM,< 1.06 µM,> 11.9 µM,6.34 to 9.25 µM,> 11.9 µM,COc1cc(Nc2ncnc(-n3ncc4ccccc43)n2)cc(OC)c1OC [Compound 240]
> 11.6 µM,< 1.03 µM,6.19 to 9.02 µM,1.03 to 6.19 µM,< 1.03 µM,< 1.03 µM,6.19 to 9.02 µM,1.03 to 6.19 µM,6.19 to 9.02 µM,COc1cc(Nc2ncnc(Nc3cccc(Cl)c3)n2)cc(OC)c1OC [Compound 135]
1.06 to 6.36 µM,1.06 to 6.36 µM,> 11.9 µM,9.27 to 11.9 µM,> 11.9 µM,< 1.06 µM,> 11.9 µM,> 11.9 µM,> 11.9 µM,COc1cc(Nc2ncnc(-n3ccc4ccccc43)n2)cc(OC)c1OC [Compound 185]
< 1.01 µM,> 11.4 µM,1.01 to 6.09 µM,> 11.4 µM,> 11.4 µM,< 1.01 µM,> 11.4 µM,> 11.4 µM,> 11.4 µM,COc1cc(Nc2ncnc(-n3c(=O)[nH]c4ccccc43)n2)cc(OC)c1OC [Compound 325]
5.99 to 8.74 µM,0.999 to 5.99 µM,> 11.2 µM,0.999 to 5.99 µM,0.999 to 5.99 µM,< 0.999 µM,0.999 to 5.99 µM,> 11.2 µM,> 11.2 µM,COc1ccc(Sc2ncnc(Nc3cc(OC)c(OC)c(OC)c3)n2)cc1 [Compound 175]
0.919 to 5.51 µM,< 0.919 µM,> 10.3 µM,> 10.3 µM,5.51 to 8.04 µM,0.919 to 5.51 µM,> 10.3 µM,0.919 to 5.51 µM,0.919 to 5.51 µM,COc1cc(Nc2ncnc(-n3c(NC(C)=O)nc4ccccc43)n2)cc(OC)c1OC [Compound 334]
6.53 to 9.53 µM,1.09 to 6.53 µM,1.09 to 6.53 µM,9.53 to 12.2 µM,6.53 to 9.53 µM,< 1.09 µM,> 12.2 µM,6.53 to 9.53 µM,> 12.2 µM,COc1cc(Nc2ncnc(Nc3ccc(C)cc3)n2)cc(OC)c1OC [Compound 930]
1.08 to 6.46 µM,< 1.08 µM,< 1.08 µM,1.08 to 6.46 µM,1.08 to 6.46 µM,< 1.08 µM,> 12.1 µM,1.08 to 6.46 µM,9.42 to 12.1 µM,COc1cc(Nc2ncnc(Nc3cccc(F)c3)n2)cc(OC)c1OC [Compound 304]
